Like-named read-outs stand apart in the source and are kept apart here.
Test system: T1, synaptosomal proteome
T1 construct: from tissue; host or cells: brain synaptosomes of male C57/B6 mice
Type: binding, mouse
Description: Synaptosomes were resuspended to 1 mg of protein/ml in HEPES buffer medium (in mM: 140 NaCl, 5 KCl, 5 NaHCO3, 1.2 NaH2PO4, 1 MgCl2, 10 glucose, and 10 HEPES (pH 7.4)). […] The samples were allowed to equilibrate for 5 min before being transferred to a parafilm-sealed 1-mm path length quartz cuvette. The sample was then irradiated for 20 min at a peak bandwidth of 350 nm (Rayonet RPR-3500 lamp) ∼6 cm from the light source. Non-irradiated samples were left in the dark at ambient temperature (22–25 °C) for 20 min. All remaining procedures were conducted with restricted light exposure.
To 750 μg of photolabeled or control synaptosome samples, 40 μl of 10% SDS and 2 μl of 5 mM DTT in water were added. Samples were then vortexed, heated for 10 min at 65 °C, and then briefly cooled. Final concentrations of 150 μM azide-biotin (Click Chemistry Tools), 2 mM tris(3-hydroxypropyltriazolylmethyl)amine (Sigma), 1 mM ascorbic acid (Sigma), and 1 mM CuSO4·5H2O (Sigma) were added to each sample and vortexed vigorously. The samples were left in the dark at ambient temperature (22–25 °C) for 1 h with mild agitation. Directly to each sample 4× volume chilled methanol, 1.5× chilled chloroform, and 3× chilled double distilled H2O were added. Samples were vortexed vigorously and centrifuged at 1,400 × g for 30 min at 4 °C. Both liquid layers were carefully removed, and the protein pellet was washed with 2 ml of 1:1 (v/v) chilled methanol/chloroform. Samples were centrifuged at 3,500 × g for 30 min at 4 °C. Protein pellets were briefly air-dried before further processing.
750 μg of biotin-conjugated protein sample was resuspended in 500 μl of 25 mM NH4HCO3 and 6 M urea in water. Next, 150 μl of 5% Triton X-100 in water, 50 μl of 10% SDS in water, and 1.5 μl of 0.5 M DTT were added. The samples were heated for 15 min at 65 °C. After briefly cooling, 14 μl of 0.5 M iodoacetamide in water was added, and the sample was left in the dark for 45 min. […] The supernatant was diluted to 4 ml with PBS, and 2 ml of PBS containing 100 μl of 50% streptavidin-agarose resin (Thermo Scientific) was added. Biotinylated proteins within the sample were captured over resin overnight at 4 °C with mild agitation. The resin was first washed with 6 ml of 1% SDS in PBS, and then 7 ml of 0.1 M urea in PBS followed by 10 ml of PBS. The resin underwent a final wash with 0.9 ml of 50 mM Tris-HCl and 1 mM CaCl2 in water (pH 8.0) and then resuspended in 200 μl of 50 mM Tris-HCl, 1 mM CaCl2 in water (pH 8.0), and 2 μg of porcine sequencing grade trypsin (Promega). Samples were digested overnight at 37 °C. Samples were then centrifuged at 2,000 × g for 4 min, and digest supernatant was decanted. Beads were washed in 100 μl of PBS centrifuged at 5,200 × g for 5 min, and the wash was combined with the digest supernatant. To the combined sample, trifluoroacetic acid (TFA) was added to 0.4% (v/v) or until pH <2. The sample was desalted with Oasis C18 10-mg columns (Waters) as described previously ([66]). The eluted sample was dried by speed vac and resuspended in 0.1 M HEPES buffer (pH 8.5). […] Appropriate corresponding TMTsixplex^TM-labeled samples were pooled and dried by speed vac. The combined samples were resuspended in 0.5% acetic acid in water and pH-corrected with acetic acid until pH was <2. 40 μg of protein was desalted with C18 stage tips prepared in-house and dried by speed vac.
Samples were resuspended in 10 mM KH2PO4 (pH 2.6), 30% acetonitrile (v/v) in water, and fractionated by off-line strong cation exchange chromatography prior to mass spectrometry (MS) analysis similar to as reported previously ([66]). The full synaptosome proteome control was prepared similarly without TMTsixplex^TM labeling.
All TMT samples were analyzed with three-stage mass spectrometry (MS3) TMTsixplex^TM quantification workflow as described previously ([34]).

[1] = protein A2AGI3 Neuroligin-3 (Nlgn3)
[2] = protein A2AWI7 Endophilin-B2 (Sh3glb2)
[3] = protein D3Z5T2 Armadillo repeat-containing protein 10 (Armc10)
[4] = protein E9Q3V6 Septin-2 (Sept2)
[5] = protein F7C846 Metaxin-1 (Mtx1)
[6] = protein F8WGD9 1-acyl-sn-glycerol-3-phosphate acyltransferase epsilon (Agpat5)
[7] = protein G3UYZ1 Immunoglobulin superfamily member 8 (Igsf8)
[8] = protein G5E829 Plasma membrane calcium-transporting ATPase 1 (Atp2b1)
[9] = protein H3BL44 Calcium-transporting ATPase (Atp2c1)
[10] = protein O09111 NADH dehydrogenase [ubiquinone] 1 beta subcomplex subunit 11, mitochondrial (Ndufb11)
[11] = protein O35114 Lysosome membrane protein 2 (Scarb2)
[12] = protein O35526 Syntaxin-1A (Stx1a)
[13] = protein O35874 Neutral amino acid transporter A (Slc1a4)
[14] = protein O35963 Ras-related protein Rab-33B (Rab33b)
[15] = protein O55022 Membrane-associated progesterone receptor component 1 (Pgrmc1)

In the case of `CC(C)c1cccc(C(C)C)c1O` [propofol, 2,6-diisopropylphenol, reference compound], the “% propofol protection” value (D3Z2J6 Tmx2) is reported as 70%, the “% propofol protection” value (E9PUL5 Prrt2) is reported as 72% and the “Log2( Mean 'UV/ UV+propofol')” value (E9PUL5 Prrt2) is reported as 1.75. The “% propofol protection” value (P07724 Alb) was 75%, the “Log2( Mean 'UV/ UV+propofol')” value (P07724 Alb) was 1.84 and the “% propofol protection” value (P12787 Cox5a) was 76%. The “% propofol protection” value (P16332 Mut) was 72%, the “Log2( Mean 'UV/ UV+propofol')” value (P16332 Mut) was 1.79 and the “Log2( Mean 'UV/ UV+propofol')” value (P23242 Gja1) was 1.15. The “Log2( Mean 'UV/ UV+propofol')” value (P35279 Rab6a) was 1.22, the “% propofol protection” value (P51150 Rab7a) was 73% and the “Log2( Mean 'UV/ UV+propofol')” value (P51150 Rab7a) was 1.72. The “% propofol protection” value (P54071 Idh2) was 71%, the “Log2( Mean 'UV/ UV+propofol')” value (P54071 Idh2) was 1.75 and the “Log2( Mean 'UV/ UV+propofol')” value (P61620 Sec61a1) was 1.22. The “% propofol protection” value (P62812 Gabra1) was 70%, the “Log2( Mean 'UV/ UV+propofol')” value (P63037 Dnaja1) was 1.24 and the “% propofol protection” value (P63044 Vamp2) was 71%. The “% propofol protection” value (P63213 Gng2) was 75%, the “Log2( Mean 'UV/ UV+propofol')” value (P63213 Gng2) was 1.98 and the “% propofol protection” value (P97445 Cacna1a) was 70%. The “% propofol protection” value (Q5SW88 Rab1) was 73%, the “Log2( Mean 'UV/ UV+propofol')” value (Q5SW88 Rab1) was 1.71 and the “% propofol protection” value (Q8BLF1 Nceh1) was 71%. For the same compound, the “Log2( Mean 'UV/ UV+propofol')” value (Q8BLF1 Nceh1) was 1.72, the “% propofol protection” value (Q8BXV2 Bri3bp) was 75% and the “Log2( Mean 'UV/ UV+propofol')” value (Q8BXV2 Bri3bp) was 1.93. The “% propofol protection” value (Q8C3X2 Ccdc90b) was 75%, the “Log2( Mean 'UV/ UV+propofol')” value (Q8C3X2 Ccdc90b) was 1.94 and the “% propofol protection” value (Q8K1Z0 Coq9) was 73%. The “Log2( Mean 'UV/ UV+propofol')” value (Q8K1Z0 Coq9) was 1.79, the “% propofol protection” value (Q8K221 Arfip2) was 70% and the “% propofol protection” value (Q8R5J9 Arl6ip5) was 75%. The “Log2( Mean 'UV/ UV+propofol')” value (Q8R5J9 Arl6ip5) was 1.93, the “% propofol protection” value (Q9CQQ7 Atp5f1) was 70% and the “% propofol protection” value (Q9CQS4 Slc25a46) was 76%. The “Log2( Mean 'UV/ UV+propofol')” value (Q9CXJ4 Abcb8) was 1.18, the “% propofol protection” value (Q9CZS1 Aldh1b1) was 75% and the “Log2( Mean 'UV/ UV+propofol')” value (Q9CZS1 Aldh1b1) was 1.96. For the same compound, the “% propofol protection” value (Q9D2P8 Mobp) was 76%, the “Log2( Mean 'UV/ UV+propofol')” value (Q9D5T0 Atad1) was 1.22 and the “% propofol protection” value (Q9D6D0 Slc25a27) was 75%. The “% propofol protection” value (Q9D6K8 Fundc2) was 71%, the “Log2( Mean 'UV/ UV+propofol')” value (Q9D6K8 Fundc2) was 1.61 and the “% propofol protection” value (Q9DAS9 Gng12) was 76%. For the same compound, the “% propofol protection” value (Q9DC70 Ndufs7) was 70%, the “Log2( Mean 'UV/ UV+propofol')” value (Q9EP69 Sacm1l) was 1.23 and the “% propofol protection” value (Q9WV54 Asah1) was 72%. For the same compound, the “Log2( Mean 'UV/ UV+propofol')” value (Q9WV54 Asah1) was 1.72, the “Log2( Mean 'UV/ UV+propofol')” value (Q9Z2I0 Letm1) was 1.22 and the “% propofol protection” value (Q99J08 Sec14l2) was 72%. The “Log2( Mean 'UV/ UV+propofol')” value (Q99J08 Sec14l2) was 1.67, the “Log2( Mean 'UV/ UV+propofol')” value (Q99JY8 Ppap2b) was 1.22 and the “% propofol protection” value (Q00915 Rbp1) was 75%. The “Log2( Mean 'UV/ UV+propofol')” value (Q00915 Rbp1) was 1.96, the “% propofol protection” value (Q64133 Maoa) was 73% and the “Log2( Mean 'UV/ UV+propofol')” value (Q64133 Maoa) was 1.78. For the same compound, the “% propofol protection” value [1] was 58%, the “Log2( Mean 'UV/ UV+propofol')” value [1] was 1.22 and the “% propofol protection” value [2] was 56%. For the same compound, the “Log2( Mean 'UV/ UV+propofol')” value [2] was 1.04, the “% propofol protection” value [3] was 55% and the “Log2( Mean 'UV/ UV+propofol')” value [3] was 1.05. The “% propofol protection” value [4] was 54%, the “Log2( Mean 'UV/ UV+propofol')” value [4] was 1.08 and the “% propofol protection” value [5] was 55%. The “Log2( Mean 'UV/ UV+propofol')” value [5] was 1.11, the “% propofol protection” value [6] was 57% and the “Log2( Mean 'UV/ UV+propofol')” value [6] was 1.12. For the same compound, the “% propofol protection” value [7] was 52%, the “Log2( Mean 'UV/ UV+propofol')” value [7] was 0.97 and the “% propofol protection” value [8] was 55%. The “Log2( Mean 'UV/ UV+propofol')” value [8] was 1.01, the “% propofol protection” value [9] was 51% and the “Log2( Mean 'UV/ UV+propofol')” value [9] was 0.88. For the same compound, the “% propofol protection” value [10] was 56%, the “Log2( Mean 'UV/ UV+propofol')” value [10] was 1.15 and the “% propofol protection” value [11] was 53%. For the same compound, the “Log2( Mean 'UV/ UV+propofol')” value [11] was 1.00, the “% propofol protection” value [12] was 57% and the “Log2( Mean 'UV/ UV+propofol')” value [12] was 1.15. For the same compound, the “% propofol protection” value [13] was 53%, the “Log2( Mean 'UV/ UV+propofol')” value [13] was 1.03 and the “% propofol protection” value [14] was 55%. The “Log2( Mean 'UV/ UV+propofol')” value [14] was 1.06, the “% propofol protection” value [15] was 51% and the “Log2( Mean 'UV/ UV+propofol')” value [15] was 1.00.

— publication PMC5034043 (The Journal of Biological Chemistry, 2016)
